Reference: US20080267862A1, “METHOD OF TREATING CANCER” (priority 2007, published 2008)

Assays:
[1] = test system: squamous cell carcinomatous tumor; assay: histopathology (HPE) of neo-angiogenesis 96 hrs after Injection LMH in a patient; format: in vivo, human; details: LMH 4 g/day I.V. for 4 days, HPE after 96 hrs
Text: (§1) Recurrences were confirmed with biopsy and HP examination. Subsequently, the patient was given 2 cycles of Palliative Chemotherapy, following Injection LMH (Lysine Monohydrochloride) for 4 days (4 g/day I.V. in divided doses), with Cisplatin and 5 FU.
HPE was done 96 hrs after Injection LMH to confirm the neo-angiogenesis (FIGS. 4 & FIGS. 5 & FIGS. 6-9)(Also compare FIGS. 4 to 9 with FIGS. 10-11 for quantitative comparison of angiogenic response in LMH treated squamous cell carcinomatous tumor vs. control tumours).

[2] = test system: recurrence lymph node masses; assay: clinical response of recurrent lymph node masses in a patient followed by palliative chemotherapy; format: in vivo, human; details: one patient; LMH 4 g/day I.V. for 4 days, then 2 cycles of palliative chemotherapy with Cisplatin and 5 FU
Text: […] They underwent Radical surgery in the form of total excision of primary tumors and bilateral Supra-omohyoid Neck dissection. Adjuvant External Beam Radiotherapy (EBRT) was then given 66 Gy/33 Fr 6½ weeks and the patient went into complete remission and was disease free for >9 months.
Subsequently, the patient had multiple nodal recurrences presenting with palpable masses.
as §1

cells in culture = assay: cellular expansion / rapid cellular growth in culture in-vitro; format: cell-based; details: FIG. 3
Text: (§2) Lysine induced repair process depends on the ability of the amino acid/derivative(s) to induce rapid and controlled cellular expansion, both in-vitro and in-vivo. The phenomenon is probably based on the ability of the molecule(s) to act as the cell surface concentrator(s) of circulating growth factor(s). The rapid angiogenic property of the molecule(s) is also entirely dependent on the same phenomenon, where angiogenic factors are concentrated, locally, on the endothelial cell surface receptors, mediated by the molecule(s) working, possibly, as molecular bridges.

[3] = induction of angiogenesis in-vivo; details: for effectiveness, on their own, in inducing angiogenesis response: each on its own
Text: as §2

expanding cells in-vivo = assay: expanding cells in-vivo
Text: The present invention is based on an improvement over the inventor's earlier discovery that lysine, without the presence of any other angiogenic factor(s)/angiogenic growth factor(s)/vasculogenic/granulation tissue inducing agent(s), is capable of inducing angiogenesis in ischaemic tissues. The inventor's initial inquiries were directed towards finding new chemical additives in a high-density-culture system, in-vitro, where the objective was to expand viable hybridoma cell mass to the maximum possible at the least possible time (lag phase minimization) and maintaining the viable cell mass in culture for the maximum possible time period, in both fed-batch as well as batch cultures. The final goal was to get highest possible yields of monoclonal antibody (Mab) in the said high-density culture. […] Because of its ability to expand cells in-vitro, the cationic amino acid was taken, along with its d-isomer and short oligomer (m.w. up to or around 500-2500) to in-vivo experimentation and clinical conditions, for controlled regeneration of cells (in clinical conditions), where in-situ regeneration of cells was centrally important along with angio-neogenesis/vasculogensis.

hybridoma cell mass = details: high-density hybridoma culture, fed-batch and batch; Datta, D et al. 1997; cited from earlier work

SMILES	angiogenic response in glandular structure (histopathology) ([1]; FIG. 4)	angiogenic response in tumor tissue (histopathology) ([1]; FIGS. 5-9, versus control FIGS. 10-11)	outcome of recurrence lymph node masses [2]	cellular expansion in culture (cells in culture; about 10 mcg/ml of added load, in addition to the usual load of l-lysine in the media)	effectiveness in expanding cells / inducing rapid cellular growth in-vitro, compared to l-lysine (cells in culture; in-vitro)	effectiveness, on their own, in inducing angiogenesis response [3]	effectiveness in inducing angiogenesis in-vivo, compared to l-lysine ([3]; in-vivo)	effectiveness in expanding cells in-vivo, compared to the l-variety (expanding cells in-vivo)	expansion of biomass (cell population) compared to other physico-chemical means (hybridoma cell mass)
Cl.NCCCC[C@H](N)C(=O)O [LMH, Lysine Monohydrochloride]	extensive angiogenic response	huge angiogenic and massive blood channel formation	disappeared achieving a 2nd complete recovery	–	–	–	–	–	–
NCCCC[C@@H](N)C(=O)O [d-lysine]	–	–	–	mediated cellular expansion in culture	equally effective	equally effective	equally effective	equally effective	–
NCCCC[C@H](N)C(=O)O [l-lysine]	–	–	–	–	–	equally effective	–	–	expand the biomass (cell population) at the least possible time
